These results are taken from patent US20160113911A1, “METHODS AND COMPOSITIONS FOR THE TREATMENT OF CANCER” (THE GENERAL HOSPITAL CORPORATION, priority 2013, published 2016).

In data set [1] the test system is HEK 293T cells. Kind of data set: MTT proliferation and viability assay. The settings on record: shRNA 4A.10 or 4A.06, 48h. It counts as cell-based, human. As to the method: For tissue culture and generation of stable cell lines see (Black et al., 2010). Rapamycin (LC Laboratories) and AZD8055 (Selleckchem) were used at indicated concentrations. […] JIB-04 (Xcessbio) was used at a final concentration of 250 nM. For the translation assays, DMEM depleted of Methionine and Cysteine (Life Technologies 21013-024) was used.
MTT assays were performed following supplier's instructions from the Cell Proliferation Kit I™ (MTT) from Roche. Briefly, 1×10^4 cells were seeded per well of a 96 well plate and grown for 24h before treatment. Forty-eight hours later, cells were assayed.

In a further data set the test system is p53. Kind of data set: p53 stabilization and p53 target gene induction after DNA damage. It counts as cell-based, human. Conditions: RPE GFP-CTRL and GFP-KDM4A cells; 1 uM for 16 hrs. As to the method: Western blots were performed as in (Black et al., 2010). Antibodies used were: KDM4A (Neuro mAB, 75-189), β-actin (Millipore), GFP (Neuro mAB, 73-131), RFP (Abcam, ab62341), p53 (Santa Cruz, sc-126), MCM2 (Cell Signaling, #3619S), MCM3 (Cell Signaling, #4012S), MCM7 (Cell Signaling, #3735S), Halo (Promega), Actinin (Santa Cruz, sc-17829), HA 12CA5 (Roche), FLAG M2 (Sigma), DNA Pol α (Abcam, ab31777).

A further data set concerns RPE cells. Kind of data set: Apoptosis by annexin V staining. The class given is cell-based, human. Conditions: RPE CTRL and KDM4A overexpressing cells.
A further data set concerns H3K36me3. Kind of data set: H3K36 demethylase activity of KDM4A variants in transfected cells (immunofluorescence). It counts as cell-based. Conditions: U2OS cells transfected with GFP-KDM4A.
Data set [2] relates to HEK 293T cells. Kind of data set: Monitored cell proliferation assay (xCELLigence growth curves, doubling time). The class given is cell-based, human. As to the method: Seventy two hours post transfection 1×10^4 HEK 293T cells were seeded per well of a 96 well plate, and then treated after 24h. Cell proliferation was monitored with an xCELLigence system (Roche) (Vistejnova et al., 2009).

Take `COc1ccc(-c2ccc3c(N4CCOC[C@@H]4C)nc(N4CCOC[C@@H]4C)nc3n2)cc1CO` [AZD8055]: the “drug sensitivity of KDM4A shRNA cells vs control vector (MTT)” value with HEK 293T cells [1] is on record as “more sensitive”.

Regarding `COc1cccc2c1C(=O)c1c(O)c3c(c(O)c1C2=O)C[C@@](O)(C(=O)CO)C[C@@H]3O[C@H]1C[C@H](N)[C@H](O)[C@H](C)O1` [doxorubicin], the “p53 stabilization and p53 target gene activation” value in the data set on p53 is “resulted in stabilization of p53 and activation of p53 target genes”. The “apoptosis (percent Annexin V positive cells)” value in the data set with RPE cells is “could induce apoptosis in both CTRL and KDM4A cells”.

B1: KDM4A SNP-A482: KDM4A germline variant E482A (protein)
chain: MASESETLNPSARIMTFYPTMEEFRNFSRYIAYIESQGAHRAGLAKVVPPKEWKPRASYDDIDDLVIPAPIQQLVTGQSGLFTQYNIQKKAMTVREFRKIANSDKYCTPRYSEFEELERKYWKNLTFNPPIYGADVNGTLYEKHVDEWNIGRLRTILDLVEKESGITIEGVNTPYLYFGMWKTSFAWHTEDMDLYSINYLHFGEPKSWYSVPPEHGKRLERLAKGFFPGSAQSCEAFLRHKMTLISPLMLKKYGIPFDKVTQEAGEFMITFPYGYHAGFNHGFNCAESTNFATRRWIEYGKQAVLCSCRKDMVKISMDVFVRKFQPERYKLWKAGKDNTVIDHTLPTPEAAEFLKESELPPRAGNEEECPEEDMEGVEDGEEGDLKTSLAKHRIGTKRHRVCLEIPQEVSQSELFPKEDLSSEQYEMTECPAALAPVRPTHSSVRQVEDGLTFPDYSDSTEVKFEELKNVKLEEEDEEEEQAAAALDLSVNPASVGGRLVFSGSKKKSSSSLGSGSSRDSISSDSETSEPLSCRAQGQTGVLTVHSYAKGDGRVTVGEPCTRKKGSAARSFSERELAEVADEYMFSLEENKKSKGRRQPLSKLPRHHPLVLQECVSDDETSEQLTPEEEAEETEAWAKPLSQLWQNRPPNFEAEKEFNETMAQQAPHCAVCMIFQTYHQVEFGGFNQNCGNASDLAPQKQRTKPLIPEMCFTSTGCSTDINLSTPYLEEDGTSILVSCKKCSVRVHASCYGVPPAKASEDWMCSRCSANALEEDCCLCSLRGGALQRANDDRWVHVSCAVAILEARFVNIAERSPVDVSKIPLPRFKLKCIFCKKRRKRTAGCCVQCSHGRCPTAFHVSCAQAAGVMMQPDDWPFVVFITCFRHKIPNLERAKGALQSITAGQKVISKHKNGRFYQCEVVRLTTETFYEVNFDDGSFSDNLYPEDIVSQDCLQFGPPAEGEVVQVRWTDGQVYGAKFVASHPIQMYQVEFEDGSQLVVKRDDVYTLDEELPKRVKSRLSVASDMRFNEIFTEKEVKQEKKRQRVINSRYREDYIEPALYRAIME
modifications: left off: large carriers; small tags and cut ends
notes: KDM4A germline variant E482A
Turning to B1, the “H3K36me3 and H3K9me3 catalytic activities” value in the data set on H3K36me3 is “did not appear to be altered”. Besides, the “rescue of increased sensitivity to AZD8055 due to KDM4A depletion (doubling time 5h-35h)” value in the data set on HEK 293T cells [2] (shRNA KDM4A plus non targetable GFP-KDM4A constructs) was “does not”. Besides, the “rescue of increased sensitivity to Rapamycin of KDM4A depleted cells (doubling time 5h-35h)” value with HEK 293T cells [2] (shRNA KDM4A plus shRNA-resistant GFP-KDM4A constructs) is recorded as “does not”.
